From US20250351832A1, “PHYTOCHEMICALS AS BIOPESTICIDES AND BIOSTIMULANTS” (KAY BEE BIO ORGANICS PVT. LTD., priority 2024, published 2025)
Read-outs that look alike come from different tables or passages of the source.

Columns and labels:
Mite [1] = conditions: Dose 1 ml/gm/lit.; for Total No. of dead insect at 48 Hrs.: 10 insects/treatment, 4 replications, okra leaves
Helicoverpa armigera [2] = conditions: Helicoverpa armigera on okra fruits, dose 1 ml/gm/lit., 72 Hrs.; for Total No. of dead insect at 72 Hrs.: 10 insects/treatment, 4 replications; for % Corrected Mortality at 72 Hrs.: corrected for water control
chili seedlings = experiment: Response of chili plants, greenhouse growth (Ex. 31); type: in vivo; conditions: chili seedlings, dose 1 ml/gm/lit; for CCI 5th Day / Plant Height (cm) 5th Day: 5th day after application; for CCI 10th Day / Plant Height (cm) 10th Day: 10th day after application; for CCI % Increase over pre on 10th Day / Plant Height % Increase over pre on 10th Day / Root Lenght (cm) 10th Day / Stem Girth % Increase over pre on 10th Day / Root Lenght % Increase over control: 10th day; for Root Lenght % Increase over control: vs water control
Aphid [3] = conditions: Dose 1 ml/gm/lit.; for Total No. of dead insect at 48 Hrs.: 10 insects/treatment, 4 replications, cotton leaves
Spodoptera litura [4] = experiment: whole plant or invertebrate; conditions: 72 h
Mite [5] = conditions: mite on okra plants, green house, dose 1 ml/gm/lit. spray; for % Mortality at 48 Hrs. / Total No. of dead insect at 48 Hrs.: 48 hrs after application; for % Corrected Mortality at 48 Hrs.: corrected for water control
Aphid [6] = experiment: whole plant or invertebrate; conditions: 48 h
Thrips [7] = conditions: thrips on cotton plants, greenhouse, dose 1 ml/gm/lit. spray; for % Mortality at 48 Hrs. / Total No. of dead insect at 48 Hrs.: 48 hrs after application; for % Corrected Mortality at 48 Hrs.: corrected for water control
Mealy Bug [8] = conditions: mealy bug on cotton plants, green house, dose 1 ml/gm/lit. spray; for % Mortality at 48 Hrs. / Total No. of dead insect at 48 Hrs.: 48 hrs after application; for % Corrected Mortality at 48 Hrs.: corrected for water control
Helicoverpa armigera [9] = conditions: Helicoverpa armigera 3rd instar on chickpea plants, dose 1 ml/gm/lit. spray; for % Mortality at 72 Hrs.: 72 hrs after application; for % Corrected Mortality at 72 Hrs.: corrected for water control
Aphid [10] = conditions: Aphids on cotton plants, green house; dose 1 ml/gm/lit.; 10 insects/plant, 10 plants/treatment; 48 hrs
[11] = cited from earlier work
Mealy Bug [12] = conditions: Mealy Bug on cotton leaves, dose 1 ml/gm/lit., 48 Hrs.; for Total No. of dead insect at 48 Hrs.: 10 insects/treatment, 4 replications; for % Corrected Mortality at 48 Hrs.: corrected for water control
Alternaria alternata [13] = experiment: Alternaria leaf spot/blight on inoculated tomato plants (Ex. 28); type: in vivo; conditions: tomato plants, Alternaria alternata; after 7 days; dose 1 ml/gm/lit
tomato seedlings = experiment: Response of tomato plants, greenhouse growth (Ex. 30); type: in vivo; conditions: tomato seedlings, dose 1 ml/gm/lit; for Plant Height 5th Day / Stem Girth 5th Day / CCI 5th Day: 5th day after application; for Plant Height 10th Day / Stem Girth 10th Day / CCI 10th Day: 10th day after application; for Plant Height % Increase over pre on 10th Day / Stem Girth % Increase over pre on 10th Day / CCI % Increase over pre on 10th Day / Root Length (cm) 10th Day / Root Length % Increase over control: 10th day; for Root Length % Increase over control: vs water control
Spodoptera litura [14] = conditions: Spodoptera litura on castor leaves; dose 1 ml/gm/lit.; 10 insects/treatment; 72 hrs after application
Alternaria alternata [15] = experiment: In vitro poisoned food technique against fungus (Ex. 20); type: cell-based; conditions: poisoned food technique, PDA medium, dose 1 ml/gm/lit., after seven days; for inhibition of growth at 1 mL or g/L: vs untreated control, read-out: % Inhibition of growth
Thrips [16] = experiment: whole plant or invertebrate; conditions: in Gossypium hirsutum, 48 h
Spodoptera litura [17] = conditions: Spodoptera litura 3rd instar on cabbage plants, dose 1 ml/gm/lit. spray; for % Mortality at 72 Hrs.: 72 hrs after application; for % Corrected Mortality at 72 Hrs.: corrected for water control
Thrips [18] = conditions: Thrips on cotton leaves; dose 1 ml/gm/lit.; 10 insects/treatment; 48 hrs after application
[19] = read-out: % Corrected Mortality at 72 Hrs.
[20] = read-out: % Mortality at 72 Hrs.
[21] = read-out: % Corrected Mortality at 48 Hrs.
[22] = read-out: % Mortality at 48 Hrs.
[23] = Table 13, descriptive, no test described

O=c1oc2c(O)c(O)cc3c(=O)oc4c(O)c(O)cc1c4c23 [Ellagic acid]
Total No. of dead insect at 48 Hrs. (Mite [1]): 5.00 | % Corrected Mortality at 48 Hrs. (Mite [1]; 48 hrs): 45.95% | Total No. of dead insect at 72 Hrs. (Helicoverpa armigera [2]): 7.25 | % Mortality at 72 Hrs. (Helicoverpa armigera [2]): 72.50% | % Corrected Mortality at 72 Hrs. (Helicoverpa armigera [2]): 72.50% | CCI 5th Day (chili seedlings): 16.35 | Plant Height (cm) 5th Day (chili seedlings): 5.77 cm | CCI % Increase over pre on 10th Day (chili seedlings): 67.49% | Plant Height % Increase over pre on 10th Day (chili seedlings): 62.60% | Root Lenght (cm) 10th Day (chili seedlings): 3.92 cm | Stem Girth % Increase over pre on 10th Day (chili seedlings): 51.20% | CCI 10th Day (chili seedlings): 16.95 | Plant Height (cm) 10th Day (chili seedlings): 6 cm | Root Lenght % Increase over control (chili seedlings): 43.41% | Total No. of dead insect at 48 Hrs. (Aphid [3]): 7.25 | % Corrected Mortality at 48 Hrs. (Aphid [3]): 68.57% | % Mortality at 48 Hrs. (Aphid [3]): 72.50% | mortality at 1 mL or g/L (Spodoptera litura [4]; [19]): 57.9% | mortality at 1 mL or g/L (Spodoptera litura [4]; [20]): 60% | % Mortality at 48 Hrs. (Mite [5]): 52.50% | Total No. of dead insect at 48 Hrs. (Mite [5]): 52.50 | % Corrected Mortality at 48 Hrs. (Mite [5]): 50.00% | mortality at 1 mL or g/L (Aphid [6]; [21]): 70.6% | mortality at 1 mL or g/L (Aphid [6]; [22]): 75% | % Mortality at 48 Hrs. (Thrips [7]): 32.50% | Total No. of dead insect at 48 Hrs. (Thrips [7]): 32.50 | % Corrected Mortality at 48 Hrs. (Thrips [7]): 25.00% | % Mortality at 48 Hrs. (Mealy Bug [8]): 57.50% | Total No. of dead insect at 48 Hrs. (Mealy Bug [8]): 57.50 | % Corrected Mortality at 48 Hrs. (Mealy Bug [8]): 52.78% | % Mortality at 72 Hrs. (Helicoverpa armigera [9]): 70.00% | % Corrected Mortality at 72 Hrs. (Helicoverpa armigera [9]): 70.00% | Total No. of dead insect at 48 Hrs. (Aphid [10]): 75.00 | Acaricidal Activity - Mode of action [11, 23]: Shows acaricidal activities | Antifungal Activity - Mode of action [11, 23]: Fungicidal activities | Antioxidant Activity - Mode of action [11, 23]: Exhibit antioxidant | Bactericidal Activity - Mode of action [11, 23]: Exhibits bactericidal | Insecticidal Activities - Mode of action [11, 23]: Inhibit the growth, food | Phytotonic Effect ([11]; Table 13, effect on plants, descriptive): Reduces plant | Total No. of dead insect at 48 Hrs. (Mealy Bug [12]): 6.00 | % Mortality at 48 Hrs. (Mealy Bug [12]): 60.00% | % Corrected Mortality at 48 Hrs. (Mealy Bug [12]): 57.89% | % Disease reduction over Control (Alternaria alternata [13]): 66.12% | Plant Height 5th Day (tomato seedlings): 7.09 cm | Stem Girth 5th Day (tomato seedlings): 1.54 mm | Plant Height 10th Day (tomato seedlings): 8.18 cm | Stem Girth 10th Day (tomato seedlings): 2.19 mm | Plant Height % Increase over pre on 10th Day (tomato seedlings): 36.11% | Stem Girth % Increase over pre on 10th Day (tomato seedlings): 62.87% | CCI 5th Day (tomato seedlings): 13.39 | CCI % Increase over pre on 10th Day (tomato seedlings): 28.96% | Root Length (cm) 10th Day (tomato seedlings): 4.48 cm | CCI 10th Day (tomato seedlings): 14.56 | Root Length % Increase over control (tomato seedlings): 34.64% | Total No. of dead insect at 72 Hrs. (Spodoptera litura [14]): 6.00 | Mean colony Diameter (mm) (Alternaria alternata [15]): 44.00 mm | inhibition of growth at 1 mL or g/L (Alternaria alternata [15]): 50% | mortality at 1 mL or g/L (Thrips [16]; [21]): 25.7% | mortality at 1 mL or g/L (Thrips [16]; [22]): 35% | % Mortality at 72 Hrs. (Spodoptera litura [17]): 55.00% | % Corrected Mortality at 72 Hrs. (Spodoptera litura [17]): 52.63% | Total No. of dead insect at 48 Hrs. (Thrips [18]): 3.50

Cc1ccc(C(C)C)cc1O [Carvacrol]
Total No. of dead insect at 48 Hrs. (Mite [1]): 4.25 | % Corrected Mortality at 48 Hrs. (Mite [1]; 48 hrs): 37.84% | % Mortality at 48 Hrs. (Mite [1]; 48 hrs): 42.50% | Total No. of dead insect at 72 Hrs. (Helicoverpa armigera [2]): 5.50 | % Mortality at 72 Hrs. (Helicoverpa armigera [2]): 55.00% | % Corrected Mortality at 72 Hrs. (Helicoverpa armigera [2]): 55.00% | CCI 5th Day (chili seedlings): 14.95 | Plant Height (cm) 5th Day (chili seedlings): 6.33 cm | CCI % Increase over pre on 10th Day (chili seedlings): 64.84% | Plant Height % Increase over pre on 10th Day (chili seedlings): 65.77% | Root Lenght (cm) 10th Day (chili seedlings): 3.97 cm | Stem Girth % Increase over pre on 10th Day (chili seedlings): 49.25% | CCI 10th Day (chili seedlings): 15 | Plant Height (cm) 10th Day (chili seedlings): 7.57 cm | Root Lenght % Increase over control (chili seedlings): 44.94% | Total No. of dead insect at 48 Hrs. (Aphid [3]): 7.00 | % Corrected Mortality at 48 Hrs. (Aphid [3]): 65.71% | % Mortality at 48 Hrs. (Aphid [3]): 70.00% | mortality at 1 mL or g/L (Spodoptera litura [4]; [19]): 42.1% | mortality at 1 mL or g/L (Spodoptera litura [4]; [20]): 45% | % Mortality at 48 Hrs. (Mite [5]): 47.50% | Total No. of dead insect at 48 Hrs. (Mite [5]): 47.50 | % Corrected Mortality at 48 Hrs. (Mite [5]): 44.74% | mortality at 1 mL or g/L (Aphid [6]; [21]): 67.7% | mortality at 1 mL or g/L (Aphid [6]; [22]): 72.5% | % Mortality at 48 Hrs. (Thrips [7]): 32.50% | Total No. of dead insect at 48 Hrs. (Thrips [7]): 32.50 | % Corrected Mortality at 48 Hrs. (Thrips [7]): 25.00% | % Mortality at 48 Hrs. (Mealy Bug [8]): 65.00% | Total No. of dead insect at 48 Hrs. (Mealy Bug [8]): 65.00 | % Corrected Mortality at 48 Hrs. (Mealy Bug [8]): 61.11% | % Mortality at 72 Hrs. (Helicoverpa armigera [9]): 52.50% | % Corrected Mortality at 72 Hrs. (Helicoverpa armigera [9]): 52.50% | Total No. of dead insect at 48 Hrs. (Aphid [10]): 72.50 | Acaricidal Activity - Mode of action [11, 23]: Has acaricidal activities | Antifungal Activity - Mode of action [11, 23]: Antifungal activities | Antioxidant Activity - Mode of action [11, 23]: Antioxidant activities | Bactericidal Activity - Mode of action [11, 23]: Exhibits antibacterial | Insecticidal Activities - Mode of action [11, 23]: Insecticidal toxicities | Nematicidal Activity - Mode of action [11, 23]: Effective against plant | Total No. of dead insect at 48 Hrs. (Mealy Bug [12]): 6.75 | % Mortality at 48 Hrs. (Mealy Bug [12]): 67.50% | % Corrected Mortality at 48 Hrs. (Mealy Bug [12]): 65.79% | % Disease reduction over Control (Alternaria alternata [13]): 47.93% | Plant Height 5th Day (tomato seedlings): 6.38 cm | Stem Girth 5th Day (tomato seedlings): 2.05 mm | Plant Height 10th Day (tomato seedlings): 7.23 cm | Stem Girth 10th Day (tomato seedlings): 2.35 mm | Plant Height % Increase over pre on 10th Day (tomato seedlings): 32.66% | Stem Girth % Increase over pre on 10th Day (tomato seedlings): 63.42% | CCI 5th Day (tomato seedlings): 13.62 | CCI % Increase over pre on 10th Day (tomato seedlings): 33.70% | Root Length (cm) 10th Day (tomato seedlings): 4.25 cm | CCI 10th Day (tomato seedlings): 15.87 | Root Length % Increase over control (tomato seedlings): 27.69% | Total No. of dead insect at 72 Hrs. (Spodoptera litura [14]): 4.50 | Mean colony Diameter (mm) (Alternaria alternata [15]): 52.50 mm | inhibition of growth at 1 mL or g/L (Alternaria alternata [15]): 40.3% | mortality at 1 mL or g/L (Thrips [16]; [21]): 25.7% | mortality at 1 mL or g/L (Thrips [16]; [22]): 35% | % Mortality at 72 Hrs. (Spodoptera litura [17]): 47.50% | % Corrected Mortality at 72 Hrs. (Spodoptera litura [17]): 44.74% | Total No. of dead insect at 48 Hrs. (Thrips [18]): 3.50
